The text below walks through data of US20050148634A1, “1-N-Aminobenzimidazole derivatives” (ZERIA PHARMACEUTICAL CO., LTD, priority 2002, published 2005).

As usually defined, the IC50 is the concentration at which inhibition is half-maximal. As a reminder, the melting point is the temperature of the solid-liquid transition.

Counter-ions that a name gives are not always drawn.

Data set [1] has as its system histamine-stimulated gastric acid secretion. Nature of the data set: Test 2 gastric acid secretion inhibitory effect, acute fistula method. Type of data set: in vivo, Sprague-Dawley (SD) rats. The following applies: male SD rats, administered into the duodenum; total gastric acid secreted on 3rd-5th hours; Probit method. How it is done:
Test 2 (Gastric Acid Secretion Inhibitory Effect)
(1) As laboratory animals, seven-week old male Sprague-Dawley (SD) rats were purchased from CHARLES RIVER JAPAN, INC. Subsequent to preliminary rearing for 5 days or longer, they were used in an experiment.
Each test medicine was suspended or dissolved in a 0.5% carboxymethylcellulose sodium solution to prepare a volume of 2.5 mL/kg.
(2) Measurement of Gastric Acid Secretion
Using rats fasted for 18 hours, histamine-stimulated gastric acid secretion in an acute fistula method following the method reported by Hiramatsu et al. (Dig. Dis. Sci., 39, 689-697 (1994)) was measured. Described specifically, each rat was lightly anesthetized with diethyl ether. After that, a winged tube needle with 3.8% citric acid solution filled therein was caused to dwell in the caudal vein. Celiotomy was performed, and the pyloric part of the stomach was ligated. A small hole was then formed in the duodenum, and a feeding tube with physiological saline filled therein was caused to dwell there. After the interior of the stomach was washed with physiological saline, a polyethylene-made fistula tube (inner diameter: 4 mm) was fitted to the proventriculus part and an incised part of the proventriculus was ligated to hold the fistula tube in place. The stomach and duodenum were returned into the abdominal cavity. Celiotomy was performed with the fistula tube and feeding tube being left extending outside, and the rat was placed in a Ballman Cage Type II. Histamine was continuously injected through the winged needle allowed to dwell in the caudal vein (8 mg/kg/h, 1.38 mL/h). Fifteen minutes later, the gastric juice was sampled, and after that, the gastric juice was sampled at intervals of 1 hour. After the amount of each gastric juice sample was recorded, it was titrated with 0.1 mol/L NaOH to a final point of pH 7.0. From the volume required for the titration, the acidity was calculated. The quantity of the secreted gastric acid was determined from the product of the amount of the gastric juice and the acidity. Incidentally, the rats were divided into groups such that the total amount of the first gastric juice samples became equal in each group. Each test medicine was administered in a volume of 2.5 mL/kg into the duodenum through the feeding tube fitted beforehand in the duodenum. To a control group, 0.5% Na—CMC solution was administered.
(3) Analysis of the Results
From the results so obtained, data were presented in terms of average ±S.D. The sum of quantities of gastric acid secreted on the 3rd, 4th and 5th hours after the first sampling was recorded as a total quantity of secreted gastric acid. The percent inhibition in each group was calculated from the total quantity of secreted gastric acid in the control group and the total quantity of secreted gastric acid in the group. From the percent inhibition in each group, the 50% effective dose (ED50) was next calculated by the Probit method.

The next data set addresses T1, H+/K+-ATPase (Sus scrofa, UniProt P19156).
T1 construct: An interface fraction obtained by the centrifugation was collected; from tissue; host or cells: swine stomach mucosal layer, membrane fraction from the sucrose interface
Nature of the data set: Test 1 proton pump inhibitory effect: H+/K+-ATPase enzyme inhibiting activity at pH 1. Conditions: swine stomach enzyme sample; test compound pretreated in pH 1 hydrochloric acid solution with 50% DMSO for 15 minutes; ATP substrate. In kind it is biochemical. The protocol:
Test 1 (Proton Pump Inhibitory Effect)
(1) Preparation of H^+/K^+-ATPase Enzyme Sample
A swine stomach which had been stored frozen was separated into a muscularis and a mucosal layer. After the mucosal layer was disrupted with a mixer in 5 volumes of 20 mmol/L tris-HCl buffer containing 0.25 mol/L of sucrose and 1 mmol/L of EGTA (pH 7.4, hereafter abbreviated as “tris-HCl buffer”), centrifugation was conducted at 9,000×g for 30 minutes. The supernatant was gently overlaid on 20 mmol/L tris-HCl buffer containing 30% of sucrose and 1 mmol/L of EGTA (pH 7.4, 8 mL), followed by ultracentrifugation at 100,000×g for 60 minutes. An interface fraction obtained by the centrifugation was collected and subjected to centrifugation twice under 113,000×g for 60 minutes. The sediment was suspended with tris-HCl buffer, and the suspension was homogenized at low rotational speed to provide an enzyme sample. The enzyme sample was stored frozen at −80° C. Using the method reported by Smith et al. (Anal. Biochem., 150, 76-85 (1985)), the thus-obtained sample was quantitatively analyzed for its protein content with a BCA protein assay reagent. The above procedure was all conducted under water cooling.
(2) Discussion about H+/K^+-ATPase Enzyme Inhibiting Activity at pH 1
Following a method making use of a method for the quantitation of inorganic phosphorus as a degradation product (Biochem. Biophys. Res. Commun., 40, 880-886 (1970)), an assay of H^+/K^+-ATPase enzyme inhibiting activity was performed by using ATP as a substrate. As a hydrochloric acid solution for the pretreatment of each test compound, a 1×10^−1 mol/L (pH 1) solution of hydrochloric acid with 50% DMSO contained therein was used. Solutions of each test compound at various concentrations were added to aliquots of the hydrochloric acid solution such that the solutions were diluted 1,000-fold, and the thus-diluted solutions were left over at room temperature for 15 minutes. […] 840-μL Aliquots of an enzyme solution (5 μg proteins) diluted with the TE buffer were then added. After incubated at 37° C. for 30 minutes, 50-μL aliquots of 40 mmol/LATP solution (dissolved in the TE buffer free of KCl) were added to initiate an enzymatic reaction (total volume: 1 mL, final ATP concentration: 2 mmol/L). Subsequent to incubation at 37° C. for 30 minutes, 2-mL aliquots of ice-cold 12% trichloroacetic acid were added to terminate the enzymatic reaction. A molybdenum reagent (1 mL; 3.75% ammonium molybdate/1.5 mol/L sulfuric acid) and butyl acetate (5 mL) were added. After vigorous shaking and mixing for 5 minutes, the absorbance of a butyl acetate layer was measured at 310 nm. From absorbances obtained by dissolving KH2PO4 solutions of various concentrations in aliquots of an 8% TCA solution and performing a similar procedure, a standard curve was prepared to perform a conversion of each quantity of inorganic phosphorus. The assay was conducted in duplicate. From a difference between an average quantity of inorganic phosphorus in the case of the KCl-containing TE buffer and an average quantity of inorganic phosphorus in the case of the KCl-free TE buffer, a residual activity was determined. Supposing that the activity of the control value (DMSO) was 100%, the percent inhibition of the compound was calculated. As the inhibition potency of each test compound, an IC50 value was calculated and presented. The test compounds were al used by dissolving them in dimethyl sulfoxide immediately before their use.

The target of a further data set is T2, human CYP2C19 (Homo sapiens, UniProt P33261).
T2 construct: purchased Sumitomo Chemical Co., Ltd
Nature of the data set: Test 3 human CYP2C19 activity inhibition test (S-(+)-mephenyloin to 4'-hydroxymephenyloin). In kind it is in vitro ADME. The following applies: test compound 10 μM; microsomes from human CYP2C19 expression system; formed 4'-hydroxymephenyloin compared with control. How it is done:
Test 3 (Human CPY2C19 Activity Inhibition Test)
CYP2C19 specifically induces the metabolic reaction of from S-(+)-mephenyloin into 4′-hydroxymephenyloin. Using the CYP2C19 expression system, the inhibitory effect of each test substance was investigated based on the amount (concentration) of formed 4′-hydroxymephenylion as an index of CYP2C19 activity.
a) Metabolic Activity Test
As a reaction mixture, a 125 μmol/L solution of S-(+)-mephenyloin in methanol (50 μL) and a 25 μmol/L solution of each test substance in methanol (0, 10, 100 or 200 μL) were added to 10-mL test tube made of glass, and the solvent was distilled off under a nitrogen gas stream (40° C.).
After incubated at 37° C. for 10 minutes, a 12% aqueous solution of perchloric acid (50 μL) was added to terminate the reaction.
Subsequent to the termination of the reaction, 10 μg/mL methyl p-hydroxybenzoate (50 μL) as an internal standard (I.S.) and diethyl ether (2 mL) were added. The resulting mixture was shaken for 10 minutes, and then centrifuged (3,000 rpm, 10 minutes). The organic layer was separately collected, and under a nitrogen gas stream (40° C.), the solvent was distilled off. The residue was dissolved in a mobile phase (200 μL), and an analysis was conducted by high performance liquid chromatography (HPLC).
Using a solution of 4′-hydroxymephenyloin in lieu of the S-(+)-mephenyloin solution, a calibration line was prepared following the above-described reaction method. Quantitation was conducted based on a peak area ratio of 4′-hydroxymephenyloin to the I.S. Comparing the formed amount of 4′-hydroxymephenyloin as a control with that of 4′-hydroxymephenyloin at the time of the existence of the test compound, the comparison result was used as an index of activity.
HPLC was conducted under the following HPLC conditions A or HPLC conditions B. […]

T1 sequence (P19156 2-1034 limits assumed): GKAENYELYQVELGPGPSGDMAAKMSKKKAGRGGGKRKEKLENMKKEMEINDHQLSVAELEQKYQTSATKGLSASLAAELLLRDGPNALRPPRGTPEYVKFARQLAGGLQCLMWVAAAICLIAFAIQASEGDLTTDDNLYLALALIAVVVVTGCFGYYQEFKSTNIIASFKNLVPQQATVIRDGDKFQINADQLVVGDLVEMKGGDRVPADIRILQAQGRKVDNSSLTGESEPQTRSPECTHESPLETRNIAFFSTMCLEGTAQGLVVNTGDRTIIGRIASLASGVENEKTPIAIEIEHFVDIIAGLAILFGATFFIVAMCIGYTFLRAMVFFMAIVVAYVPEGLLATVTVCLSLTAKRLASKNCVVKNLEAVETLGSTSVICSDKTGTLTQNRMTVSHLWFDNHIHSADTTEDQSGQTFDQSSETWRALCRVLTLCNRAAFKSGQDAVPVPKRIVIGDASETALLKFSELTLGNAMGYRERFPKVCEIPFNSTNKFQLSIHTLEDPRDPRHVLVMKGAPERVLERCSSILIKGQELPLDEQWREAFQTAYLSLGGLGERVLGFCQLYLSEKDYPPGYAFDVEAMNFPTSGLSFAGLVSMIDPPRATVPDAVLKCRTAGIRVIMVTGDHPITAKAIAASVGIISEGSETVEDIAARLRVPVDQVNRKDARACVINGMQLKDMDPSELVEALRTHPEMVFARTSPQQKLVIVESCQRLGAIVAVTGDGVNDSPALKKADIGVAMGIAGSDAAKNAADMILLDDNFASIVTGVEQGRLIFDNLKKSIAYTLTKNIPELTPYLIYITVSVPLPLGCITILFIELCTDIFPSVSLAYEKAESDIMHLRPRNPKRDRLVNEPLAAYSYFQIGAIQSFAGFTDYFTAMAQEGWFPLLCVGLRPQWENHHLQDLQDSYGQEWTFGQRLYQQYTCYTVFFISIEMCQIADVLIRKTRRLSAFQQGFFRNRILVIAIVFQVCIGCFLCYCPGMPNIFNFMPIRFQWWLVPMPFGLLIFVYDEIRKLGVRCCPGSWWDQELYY
T1 sequence (P18434 whole entry partner): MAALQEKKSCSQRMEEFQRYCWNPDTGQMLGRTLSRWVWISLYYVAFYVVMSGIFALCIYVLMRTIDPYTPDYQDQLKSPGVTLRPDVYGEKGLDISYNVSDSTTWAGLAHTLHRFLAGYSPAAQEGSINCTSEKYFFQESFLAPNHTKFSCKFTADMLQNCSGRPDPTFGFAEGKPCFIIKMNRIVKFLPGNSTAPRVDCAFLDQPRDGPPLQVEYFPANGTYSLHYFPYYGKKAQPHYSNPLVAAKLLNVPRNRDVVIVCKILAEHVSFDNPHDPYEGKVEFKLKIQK
T2 sequence (P33261 whole entry): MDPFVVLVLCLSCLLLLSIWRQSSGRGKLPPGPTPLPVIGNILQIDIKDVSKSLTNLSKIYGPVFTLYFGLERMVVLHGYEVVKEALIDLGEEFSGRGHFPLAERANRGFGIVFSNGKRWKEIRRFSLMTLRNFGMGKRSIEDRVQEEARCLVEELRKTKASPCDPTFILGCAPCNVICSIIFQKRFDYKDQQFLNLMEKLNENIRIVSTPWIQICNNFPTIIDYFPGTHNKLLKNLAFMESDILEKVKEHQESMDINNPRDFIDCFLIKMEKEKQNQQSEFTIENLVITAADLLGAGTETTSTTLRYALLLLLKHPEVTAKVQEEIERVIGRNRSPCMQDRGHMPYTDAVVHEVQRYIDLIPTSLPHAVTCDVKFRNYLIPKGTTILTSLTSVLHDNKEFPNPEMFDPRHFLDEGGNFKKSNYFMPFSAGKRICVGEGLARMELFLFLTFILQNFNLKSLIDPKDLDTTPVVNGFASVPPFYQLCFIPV

In the case of `Cc1c(OCC(F)(F)F)ccnc1C[S+]([O-])c1nc2ccccc2n1NCC(O)c1ccccc1` (mixture of isomers) [Example 51], in data set [1], the “Gastric acid secretion inhibitory effect ED50” value is 2.4 mg/kg. On H+/K+-ATPase, the IC50 worked out at 3.32 µM.
For `COC(=O)CNn1c([S+]([O-])Cc2nccc(OCC(F)(F)F)c2C)nc2ccccc21` (racemic) [Example 47], on H+/K+-ATPase, the IC50 was found to be 4.85 µM.
As to `Cc1c(OCC(F)(F)F)ccnc1C[S+]([O-])c1nc2ccccc2n1NCc1ccccc1` (racemic) [Example 49], the IC50 on H+/K+-ATPase was determined as 1.03 µM.
For `Cc1c(OCC(F)(F)F)ccnc1C[S+]([O-])c1nc2ccccc2n1NCCc1ccccc1` (racemic) [Example 50], the IC50 at H+/K+-ATPase is 0.87 µM.
As for `Cc1c(OCC(F)(F)F)ccnc1C[S+]([O-])c1nc2ccccc2n1NCCCCCO` (racemic) [Example 54], the IC50 on H+/K+-ATPase came to 3.88 µM.
On the same count and under the same terms, the value for `C=CCNn1c([S+]([O-])Cc2nccc(OCC(F)(F)F)c2C)nc2ccccc21` (racemic) [Example 64] was 2.28 µM.
Consider `Cc1c(OCC(F)(F)F)ccnc1C[S+]([O-])c1nc2ccccc2n1N` (single isomer, unassigned; (+)) (as salt: tartrate) [(+) isomer of Example 1, (+)-1-Amino-2-[[4-(2,2,2-trifluoroethoxy)-3-methylpyridin-2-yl]methylsulfinyl]benzimidazole], for which the melting point was in the range of 111 to 113 °C.
The same measure, in the same setting: the value for `CBc1cc(C)nc(C[S+]([O-])c2nc3ccccc3n2N)c1` (stereo not shown) [Example 7] was 130 to 133 °C.
Consider `Cc1c(OCC(F)(F)F)ccnc1C[S+]([O-])c1nc2cc(OC(F)F)ccc2n1N` (stereo not shown) [Example 68], for which the melting point lay within 194 to 195 °C. At H+/K+-ATPase, the IC50 amounted to 3.2 µM.
In turn, `COc1ccc2nc([S+]([O-])Cc3ncc(C)c(OC)c3C)n(N)c2n1` (stereo not shown) [Example 78] gave a melting point of 174 to 175 °C. In addition, on human CYP2C19, the “CYP2C19 activity inhibition (%)” value was 62%.
